# Marks after values point to notes of the source that are not given here.
# How the values were obtained:
# [1] = Vapor pressures of crystalline and liquid phases, static method with capacitance diaphragm gauge; format: physicochemical
# Source text: A previously described and tested static apparatus was used to measure the vapor pressures of the condensed phases (both crystalline and liquid) of the five compounds studied. This installation employs MKS capacitance diaphragm absolute gauges, operating at self-regulated constant temperatures. Our lab is equipped with three pressure gauges. Gauge I, a Baratron 631A01TBEH (MKS instruments, Andover, MA, USA) (Tgauge = 423 K), measures pressures in the range of 0.5 to 1.3 × 10^2 Pa and operates within a temperature range of 253 to 413 K. Gauge II, the instrument used in this study, is a Baratron 631A11TBFP (MKS instruments, Andover, MA, USA) (Tgauge = 473 K), capable of measuring pressures from 0.5 to 1.3 × 10^3 Pa within a temperature range of 253 to 433 K and gauge III, a Baratron 631D02T8FP (MKS instruments, Andover, MA, USA) (Tgauge = 473 K), designed to measure pressures between 0.5 Pa and 2.6 × 10^2 Pa, also within a temperature range of 253 to 433 K. The temperatures of the samples were measured using a Pt100 platinum resistance thermometer, calibrated by comparison with a standard platinum resistance thermometer (SPRT: Tinsley Precision Instruments Ltd, London, England). To prevent vapor condensation, the tubing connecting the cell containing the condensed sample to the pressure gauge is maintained at a temperature higher than that of the sample but lower than that of the gauge. The uncertainty in temperature measurements is estimated to be u(T/K) = ±0.01, and the expanded uncertainties (0.95 confidence level, k = 2) in pressure measurements are given by the expression U(p/Pa) = 0.1 + 0.0050 (p/Pa) for the gauge used. Samples were thoroughly degassed before starting the vapor pressure measurements, ensuring consistent readings at specific temperatures and eliminating any residual volatile substances, including water.
# [2] = Gibbs energy of hydration and Henry's law volatility constant calculated from sublimation and solubility data; conditions: 25 °C
# Method: (§1) The concentration was measured by absorbances at 260 nm for 4-chlorobenzaldehyde, 263 nm for 4-bromobenzaldehyde and 2,4-dichlorobenzaldehyde, 297 nm for 2,6-dichlorobenzaldehyde, and 306 nm for 2,3-dichlorobenzaldehyde, using a Cary-60 UV–vis (Agilent) spectrophotometer. X-ray diffraction (XRD) and differential scanning calorimetry of residual solids were used to identify the eventual phase transformations. The purified samples of each compound studied were used for all experimental determinations, including the solubility measurements. After reaching the equilibrium, the residual solid was dried and analyzed using both DSC and XRD. The melting properties obtained from DSC were compared with those of the original purified sample, following the same procedure for the XRD analysis. […] As an example, the supporting information includes two thermograms and two XRD patterns for 2,4-dichlorobenzaldehyde (Figures S1 and S2). […] Equation (4) was derived from Equation (5), which is widely applicable to the solubility of solids.(4) ΔhydrGm°/kJ·mol^−1=9.17−5.71·log10(Scr/mol·m^−3)−ΔcrgGm°/kJ·mol^−1 (5) S=p^°/RTexpΔcrgGm°+ΔhydrGm°/−RT
# The standard states in Equation (5) are p° = 1 × 10^5 Pa for ΔcrgGm° , c° = 1 mol·L^−1 for ΔhydrGm° and s° = 1 mol·m^−3 for solubility. Using the experimental results of ΔhydrGm° , calculated through Equation (4), the values of Henry’s law volatility constants, KHpc, were determined in the logarithm form by Equation (6), that was adapted from Modarressi et al..
# [3] = pH of the saturated aqueous solutions; format: physicochemical; conditions: saturated aqueous solution of the solubility experiment
# Method: as §1
# An excess amount of each compound was added to a known volume of water in triplicate. […] After stirring, the solid phase was allowed to settle for 2 h. The pH of the saturated solutions was measured using a Mettler Toledo (Greifensee, Switzerland) FiveEasy F20 pH Meter calibrated with standard aqueous solutions (pH 7.00 and 4.01 or 10.1). Those solutions were then filtered through a 0.22 μm syringe hydrophilic filter (13 mm, PTFE, Labfil, Zhejiang, China) and diluted to the required concentration. The concentration of the compounds, expressed in molarity, was measured by absorbances using a Cary-60 UV–vis spectrophotometer (Agilent Technologies, Santa Clara, CA, USA) at 298.15 K (single cell Peltier accessory, ±0.15 K). The results reported in Table 6 are averaged from at least three replicates. Calibration was performed using solutions of known concentrations of each substance in water. These solutions were prepared by adding a precise mass of the substance and a specific volume of the solvent to a flask, then mixing until the substance was fully dissolved. The absorbance of these solutions was measured, and calibration curves were created.
smiles,measurement,setting,value
"O=Cc1ccc(Cl)cc1Cl [2,4-Dichlorobenzaldehyde]",vapor pressure p,"[1]; crystalline phase, T = 285.78 K",0.64 Pa
same,vapor pressure p,"[1]; crystalline phase, T = 287.68 K",0.80 Pa
same,vapor pressure p,"[1]; crystalline phase, T = 289.73 K",1.02 Pa
same,vapor pressure p,"[1]; crystalline phase, T = 291.36 K",1.23 Pa
same,vapor pressure p,"[1]; crystalline phase, T = 293.15 K",1.50 Pa
same,vapor pressure p,"[1]; crystalline phase, T = 294.83 K",1.81 Pa
same,vapor pressure p,"[1]; crystalline phase, T = 296.85 K",2.29 Pa
same,vapor pressure p,"[1]; crystalline phase, T = 298.81 K",2.85 Pa
same,vapor pressure p,"[1]; crystalline phase, T = 301.19 K",3.67 Pa
same,vapor pressure p,"[1]; crystalline phase, T = 303.16 K",4.55 Pa
same,vapor pressure p,"[1]; crystalline phase, T = 305.23 K",5.65 Pa
same,vapor pressure p,"[1]; crystalline phase, T = 307.12 K",6.86 Pa
same,vapor pressure p,"[1]; crystalline phase, T = 308.88 K",8.29 Pa
same,vapor pressure p,"[1]; crystalline phase, T = 310.95 K",10.12 Pa
same,vapor pressure p,"[1]; crystalline phase, T = 313.23 K",12.78 Pa
same,vapor pressure p,"[1]; crystalline phase, T = 315.25 K",15.58 Pa
same,vapor pressure p,"[1]; crystalline phase, T = 317.80 K",20.05 Pa
same,vapor pressure p,"[1]; crystalline phase, T = 320.56 K",26.18 Pa
same,vapor pressure p,"[1]; crystalline phase, T = 322.93 K",32.84 Pa
same,vapor pressure p,"[1]; crystalline phase, T = 325.24 K",40.77 Pa
same,vapor pressure p,"[1]; crystalline phase, T = 327.66 K",50.25 Pa
same,vapor pressure p,"[1]; crystalline phase, T = 329.75 K",60.90 Pa
same,vapor pressure p,"[1]; crystalline phase, T = 331.73 K",72.78 Pa
same,vapor pressure p,"[1]; crystalline phase, T = 333.66 K",85.89 Pa
same,vapor pressure p,"[1]; crystalline phase, T = 335.72 K",102.0 Pa
same,vapor pressure p,"[1]; crystalline phase, T = 337.64 K",119.1 Pa
same,vapor pressure p,"[1]; crystalline phase, T = 339.73 K",141.9 Pa
same,vapor pressure p,"[1]; crystalline phase, T = 341.66 K",166.2 Pa
same,vapor pressure p,"[1]; liquid phase, T = 344.36 K",207.6 Pa
same,vapor pressure p,"[1]; liquid phase, T = 346.33 K",233.6 Pa
same,vapor pressure p,"[1]; liquid phase, T = 348.33 K",261.6 Pa
same,vapor pressure p,"[1]; liquid phase, T = 349.66 K",282.0 Pa
same,vapor pressure p,"[1]; liquid phase, T = 351.41 K",310.8 Pa
same,vapor pressure p,"[1]; liquid phase, T = 353.17 K",342.8 Pa
same,vapor pressure p,"[1]; liquid phase, T = 355.39 K",390.3 Pa
same,vapor pressure p,"[1]; liquid phase, T = 357.59 K",437.4 Pa
same,vapor pressure p,"[1]; liquid phase, T = 359.46 K",479.4 Pa
same,vapor pressure p,"[1]; liquid phase, T = 361.34 K",533.0 Pa
same,vapor pressure p,"[1]; liquid phase, T = 363.54 K",603.2 Pa
same,vapor pressure p,"[1]; liquid phase, T = 365.63 K",668.2 Pa
same,vapor pressure p,"[1]; liquid phase, T = 367.44 K",733.6 Pa
same,vapor pressure p,"[1]; liquid phase, T = 369.34 K",810.6 Pa
same,vapor pressure p,"[1]; liquid phase, T = 371.29 K",885.4 Pa
same,vapor pressure p,"[1]; liquid phase, T = 373.62 K",998.4 Pa
same,vapor pressure p,"[1]; liquid phase, T = 375.74 K",1100 Pa
same,vapor pressure p,"[1]; supercooled liquid, T = 324.34 K",57.72 ^d Pa
same,vapor pressure p,"[1]; supercooled liquid, T = 326.40 K",66.54 ^d Pa
same,vapor pressure p,"[1]; supercooled liquid, T = 328.22 K",75.25 ^d Pa
same,vapor pressure p,"[1]; supercooled liquid, T = 330.22 K",85.67 ^d Pa
same,vapor pressure p,"[1]; supercooled liquid, T = 332.21 K",97.72 ^d Pa
same,vapor pressure p,"[1]; supercooled liquid, T = 334.17 K",110.6 ^d Pa
same,vapor pressure p,"[1]; supercooled liquid, T = 336.16 K",125.6 ^d Pa
same,vapor pressure p,"[1]; supercooled liquid, T = 338.15 K",141.4 ^d Pa
same,vapor pressure p,"[1]; supercooled liquid, T = 340.44 K",163.3 ^d Pa
same,vapor pressure p,"[1]; supercooled liquid, T = 342.29 K",184.1 Pa
same,Gibbs energy of hydration ΔhydrGm°,[2]; calculated by Equation (4),-16.5 kJ/mol
same,log10(KHpc/kPa·m^3·mol^−1) Henry's law volatility constant,[2]; calculated by Equation (6),−2.50
same,KHpc×10^3 Henry's law volatility constant,[2]; value is KHpc multiplied by 10^3,3.16 kPa·m^3·mol^−1
same,pH of the saturated solution,[3],6.57

# Reference: publication PMC11990670, “Exploring the Volatility, Phase Transitions, and Solubility Properties of Five Halogenated Benzaldehydes” (Molecules, 2025)
